Here are results for 6 compounds from article PMC6651611 (Slas Discovery, 2019).

As usually defined, the IC50 is the concentration needed to halve the response being measured. Read a high IC50 as lower potency. As usually defined, the Km is the concentration of substrate that gives half-maximal velocity. Usually kcat/Km stands for the turnover number divided by the Michaelis constant. What is called kcat is the maximal rate divided by the concentration of active sites.

Data set [1] concerns the target CYP130A1 (CYP130A1-BM3R) (Mycobacterium tuberculosis, UniProt P9WPN5). Nature of the data set: biochemical.
Data set [2] addresses CYP125A1 (Mycobacterium tuberculosis, UniProt P9WPP1). The data set is classed as biochemical.
For data set [3], the target named is CYP124A1 (Mycobacterium tuberculosis, UniProt P9WPP3). The data set is classed as biochemical.
Data set [4] has as its system COc1ccc2nc(C3=N[C@@H](C(=O)OCCO)CS3)sc2c1. Nature of the data set: purified protein.
Data set [5] relates to O=C(O)[C@H]1CSC(c2nc3ccc(OCc4ccccc4)cc3s2)=N1. Nature of the data set: purified protein.

In turn, `Clc1ccc(COC(Cn2ccnc2)c2ccc(Cl)cc2Cl)cc1` (stereo not shown) [econazole] registered an IC50 in data set [1] of 50 ± 10 nM.

Take `CC(=O)N1CCN(c2ccc(OC[C@H]3CO[C@](Cn4ccnc4)(c4ccc(Cl)cc4Cl)O3)cc2)CC1` (racemic) [ketoconazole]: in data set [1], the 50% inhibitory concentration (IC50) amounted to 100 ± 20 nM.

Consider `COc1ccc2nc(C3=N[C@@H](C(=O)OCCO)CS3)sc2c1` [Luciferin-ME EGE], for which the “luminescence turnover assay with purified enzyme (S/B 7.8)” value in data set [2] is recorded as “Luciferin-ME EGE was the only pro-luciferin substrate metabolized by these three cholesterol-metabolizing Mtb CYPs”. Moreover, the “luminescence turnover assay with purified enzyme (S/B 7.3)” value in data set [3] was “Luciferin-ME EGE was the only pro-luciferin substrate metabolized by these three cholesterol-metabolizing Mtb CYPs”.

Consider `Clc1ccc(COC(Cn2ccnc2)c2ccc(Cl)cc2Cl)c(Cl)c1` (stereo not shown) [miconazole], for which 17 ± 3 nM corresponded to half-maximal inhibition in data set [1] (IC50).

Take “CYP142A1 (Mycobacterium tuberculosis H37Rv)”: in data set [4], the Km was 270 ± 22 µM and the kcat/Km amounted to 0.00333 M⁻¹ s⁻¹.

In the case of “CYP130A1 (CYP130A1-BM3R) (Mycobacterium tuberculosis H37Rv)”, in data set [5], the Michaelis constant (Km) is listed as 37 ± 2.4 µM, the kcat was determined as 0.000667 ± 1.33e-05 s⁻¹ and the kcat/Km came out at 18.3 M⁻¹ s⁻¹.
